Data on four compounds can be found in article PMC5382265, “Macrocycle peptides delineate locked-open inhibition mechanism for microorganism phosphoglycerate mutases” (Nature Communications, 2017).

Like-named read-outs stand apart in the source and are kept apart here. Positions of bridges follow the written chain, without caps; N, C: chain ends. Non-standard residues stand in square brackets, D forms with d. Residues, ends and D or L forms follow the SMILES beside them.

In assay [1] the test system is iPGM orthologues and dPGM isozymes. Format: biochemical.
For assay [2], the target named is E. coli cofactor-independent phosphoglycerate mutase (iPGM) (E. coli) (UniProt P37689).
Chain of E. coli cofactor-independent phosphoglycerate mutase (iPGM) (E. coli) (P37689 whole entry): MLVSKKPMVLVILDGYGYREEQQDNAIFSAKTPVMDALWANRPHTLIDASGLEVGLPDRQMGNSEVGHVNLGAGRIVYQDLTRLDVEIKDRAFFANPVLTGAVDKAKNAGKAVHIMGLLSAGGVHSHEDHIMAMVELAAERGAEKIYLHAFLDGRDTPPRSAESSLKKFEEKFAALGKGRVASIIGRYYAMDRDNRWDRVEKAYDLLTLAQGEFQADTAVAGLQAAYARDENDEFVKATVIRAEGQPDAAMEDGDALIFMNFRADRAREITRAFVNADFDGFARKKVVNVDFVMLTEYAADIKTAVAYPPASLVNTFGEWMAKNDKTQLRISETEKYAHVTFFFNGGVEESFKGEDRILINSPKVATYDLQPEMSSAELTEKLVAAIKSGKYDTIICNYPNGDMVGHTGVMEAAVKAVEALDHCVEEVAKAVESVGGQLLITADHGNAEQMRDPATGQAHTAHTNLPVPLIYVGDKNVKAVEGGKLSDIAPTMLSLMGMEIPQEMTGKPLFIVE
In a further assay the target is T1, C. elegans iPGM (Caenorhabditis elegans, UniProt G5EFZ1).
T1 sequence (G5EFZ1 1-539): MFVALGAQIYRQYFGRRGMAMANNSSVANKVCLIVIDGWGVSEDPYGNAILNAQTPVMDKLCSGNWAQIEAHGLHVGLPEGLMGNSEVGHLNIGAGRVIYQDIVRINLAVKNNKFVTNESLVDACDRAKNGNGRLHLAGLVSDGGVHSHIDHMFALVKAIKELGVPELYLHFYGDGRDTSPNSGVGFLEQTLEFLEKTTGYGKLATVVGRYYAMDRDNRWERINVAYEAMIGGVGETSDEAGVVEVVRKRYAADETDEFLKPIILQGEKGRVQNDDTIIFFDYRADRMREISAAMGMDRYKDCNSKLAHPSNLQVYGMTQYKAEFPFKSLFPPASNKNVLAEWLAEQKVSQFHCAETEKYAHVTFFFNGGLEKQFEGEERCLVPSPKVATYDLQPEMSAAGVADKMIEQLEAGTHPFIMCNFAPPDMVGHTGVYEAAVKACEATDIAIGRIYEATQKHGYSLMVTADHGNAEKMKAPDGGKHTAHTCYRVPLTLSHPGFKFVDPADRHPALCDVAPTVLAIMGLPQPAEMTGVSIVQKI
In words: PGM enzyme-coupled bioluminescent end point assay (Kinase-Glo Plus). In kind it is biochemical.

The target of another assay is B. malayi iPGM (Brugia malayi, UniProt Q4VWF8). In words: biochemical. The following applies: pIC50 B. malayi iPGM.
Chain of B. malayi iPGM (Q4VWF8 whole entry, looked up): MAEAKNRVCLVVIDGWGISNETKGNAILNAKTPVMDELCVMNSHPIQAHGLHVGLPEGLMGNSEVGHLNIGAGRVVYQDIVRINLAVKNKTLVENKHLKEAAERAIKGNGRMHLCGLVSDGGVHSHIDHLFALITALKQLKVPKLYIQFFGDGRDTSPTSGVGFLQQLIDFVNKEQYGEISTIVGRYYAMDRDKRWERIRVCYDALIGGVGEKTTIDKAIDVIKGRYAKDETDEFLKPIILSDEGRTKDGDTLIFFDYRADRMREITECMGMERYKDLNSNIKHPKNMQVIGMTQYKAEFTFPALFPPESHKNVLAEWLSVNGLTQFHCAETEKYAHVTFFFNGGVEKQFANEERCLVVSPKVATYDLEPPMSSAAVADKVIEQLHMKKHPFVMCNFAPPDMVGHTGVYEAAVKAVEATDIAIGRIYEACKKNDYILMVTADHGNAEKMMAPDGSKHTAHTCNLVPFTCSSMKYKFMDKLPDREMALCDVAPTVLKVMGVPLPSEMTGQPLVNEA
The target of assay [3] is T2, E. coli iPGM (Escherichia coli, UniProt P37689). In words: biochemical.
T2 sequence (P37689 whole entry, looked up): as the sequence (P37689 whole entry) above
The target of assay [4] is T2, E. coli iPGM. In words: biochemical. The source holds these as a separate data set.
The next assay addresses H. sapiens dPGM (Homo sapiens, UniProt P18669). Briefly: Gradient elution moving boundary electrophoresis (GEMBE) assay. Format: biochemical. The following applies: 2.1 nM H. sapiens dPGM.

Chain of H. sapiens dPGM (P18669 whole entry): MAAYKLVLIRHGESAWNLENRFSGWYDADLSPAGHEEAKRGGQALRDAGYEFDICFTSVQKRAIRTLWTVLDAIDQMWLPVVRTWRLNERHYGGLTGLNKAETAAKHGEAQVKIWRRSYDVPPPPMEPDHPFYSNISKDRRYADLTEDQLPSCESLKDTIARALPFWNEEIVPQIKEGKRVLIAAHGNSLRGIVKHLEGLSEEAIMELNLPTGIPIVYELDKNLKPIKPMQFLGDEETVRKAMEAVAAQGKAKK

As to “^Ac-DYDYPGDYSYLY-NH2 [Ce-L2d, linear form of Ce-2d]”, the “inhibitory activity on the PGM panel, in words” value in assay [1] is “completely inactive on all iPGMs”.

On to Ce-2S (Ce-2 with Cys14Ser) (peptide), for which, in assay [2], the IC50 of inhibition of PGM activity, enzyme-coupled bioluminescent assay is 10 nM.

For `CC(C)C[C@H](NC(=O)[C@H](Cc1ccc(O)cc1)NC(=O)[C@@H]1CSCC(=O)N[C@H](Cc2ccc(O)cc2)C(=O)N[C@@H](CC(=O)O)C(=O)N[C@@H](Cc2ccc(O)cc2)C(=O)N2CCC[C@H]2C(=O)NCC(=O)N[C@@H](CC(=O)O)C(=O)N[C@@H](Cc2ccc(O)cc2)C(=O)N1)C(N)=O` [Ce-2e] ({CH2CO}-[dY]DYPGDYCYL-NH2; thioether N-8), the IC50 is 69.2 nM on C. elegans iPGM (pIC50 C. elegans iPGM), 2950 nM against B. malayi iPGM and 53.7 nM on E. coli iPGM [3] (pIC50 E. coli iPGM). Besides, the potency decrease in assay [1] is on record as roughly 100 fold.

With `CC(C)C[C@H](NC(=O)[C@H](Cc1ccc(O)cc1)NC(=O)[C@@H]1CSCC(=O)N[C@H](Cc2ccc(O)cc2)C(=O)N[C@@H](CC(=O)O)C(=O)N[C@@H](Cc2ccc(O)cc2)C(=O)N2CCC[C@H]2C(=O)NCC(=O)N[C@@H](CC(=O)O)C(=O)N[C@@H](Cc2ccc(O)cc2)C(=O)N1)C(=O)N[C@@H](Cc1ccc(O)cc1)C(=O)NCC(=O)N[C@H](C(=O)N[C@@H](CS)C(=O)NCC(N)=O)[C@@H](C)O` [Ce-2], the IC50 on C. elegans iPGM (pIC50, apparent C. elegans iPGM) was 2.24 nM; at C. elegans iPGM (pIC50 C. elegans iPGM), 0.251 nM; against E. coli iPGM [4], 3.24 nM; at E. coli iPGM [3] (pIC50, apparent E. coli iPGM) it was 1.66 nM; against E. coli iPGM [3] (pIC50 E. coli iPGM) it was 0.55 nM. Moreover, the “pIC50 from the GEMBE assay” value at H. sapiens dPGM is on record as “no apparent activity”.
